Assays:
NCI-H460 = assay: MTT proliferation assay, NCI-H460; assay type: cell-based, human; settings: Homo sapiens; NSCLC, NCI-H460, 120 h of exposure
Procedure: (§1) The human non-small cell lung adenocarcinoma lines NCI-H1299 (CRL-5803), NCI-H460 (HTB-177), NCI-H358 (CRL-5807), NCI-H838 (CRL-5844), the human colorectal adenocarcinoma lines COLO 205 (CCL-222), HCT-15 (CCL-225) and the human gastric cancer cell line NCI-N87 (CRL-5822) were cultured in RPMI 1640 medium containing 2 g/L sodium bicarbonate (Hyclone/Invitrogen) supplemented with 2 mM L-glutamine (Gibco) 1 mM sodium pyruvate (Sigma), 10 mM HEPES (Sigma) and 4500 mg/L glucose (Sigma). The human non-small cell lung adenocarcinoma line NCI-H2126 (CCL-256) was cultured in DMEM:F12(1:1) (Hyclone/Invitrogen) containing 2.5 mM L-glutamine 2.4 g/L sodium bicarbonate supplemented with 5% fetal bovine serum (FBS), an additional 2 mM L-glutamine, 15 mM HEPES, 0.005 mg/ml insulin (Sigma), 0.01 mg/ml transferrin (Sigma), 30 nM sodium selenite (Sigma), 10 nM hydrocortisone (Sigma) and 10 nM beta-estradiol (Sigma). The human colorectal adenocarcinoma line HT-29 (HTB-38) and the human gastric cancer cell lines OE-19 (#96071721) and MKN1 (JCRB0252) were cultured in RPMI 1640 media supplemented with 2 mM L-glutamine.
(§2) Proliferation Assays. IC50 values were determined for each cell line. Cells were seeded in 96-well plates at an appropriate cell density as determined from growth kinetics analysis and cultured for 5 days in the absence and presence of the test compounds. Cell proliferation was assessed after the addition of 20 μl of 3-4,5 dimethylthiazol-2,5-diphenyl tetrazolium bromide (MTT, 5 mg/ml in PBS, Sigma) for 5 hrs at 37° C. according to manufacturer's instructions. IC50 values were calculated from semi-log plots of % of control proliferation on the y-axis against log dose on the x-axis.
(§3) Anti-proliferative Activity of Isoflavonoid Derivatives. IC50 values were determined for each cell line after 120 h of exposure.

MM200 = assay: MTT proliferation assay, MM200; assay type: cell-based; settings: Melanoma, MM200, 120 h of exposure
Procedure: as §2, §3

COLO205 = assay: MTT proliferation assay, COLO205; assay type: cell-based, human; settings: Homo sapiens, COLO 205; CRC, COLO205, 120 h of exposure
Procedure: as §1, §2, §3

PC3 = assay: MTT proliferation assay, PC3; assay type: cell-based
How it was run: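 Cells seeded at densities set from growth kinetics and cultured 5 days (120 h) with or without test compounds. MTT added for 5 hrs at 37° C. IC50 taken from semi-log plots of % control proliferation versus log dose.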

IC50 (NCI-H460): 510 to 1500 nM
IC50 (COLO205): 1600 to 10000 nM
IC50 (PC3; Homo sapiens, PC-3, 120 h, Prostate, PC3, 120 h of exposure): 150 to 500 nM
IC50 (PC3; Table 2, Prostate, PC3, 120 hrs of exposure): 150 to 500 nM
Compound: Oc1ccc([C@H]2c3ccc(O)cc3OC[C@H]2c2ccc(O)cc2)cc1 [Compound 31, d-cis-3-(4-hydroxyphenyl)-4-(4-hydroxyphenyl)chroman-7-ol]
IC50 (MM200): 510 to 1500 nM
